Reference: patent publication EP4678638A1, “NEW E3 UBIQUITIN LIGASE LIGAND, PROTEIN DEGRADATION AGENT AND USE THEREOF” (priority 2023, dated 2024)

Experiments:
H520 = test: CCK-8 proliferation, H520; assay type: cell-based; conditions: Homo sapiens, NCI-H520, 96 hours, read-out: Inhibitory activity (IC50) on tumor cell proliferation, H520
Protocol: (§1) The tumor cells used herein were cultured in a cell culture medium listed in table A1 at 37°C in an incubator with 5% CO2. Prior to experimentation, all cell lines used were correctly identified by STR profiling, and tested negative for mycoplasma contamination using a mycoplasma detection kit through routine screenings. Table A1. Tumor cells and cell culture medium used in the present disclosure
(§2) IC50 values of the compounds of the present disclosure (including the compounds in Table 1, and compounds of examples) were measured using the Meilun Cell Counting Kit-8 kit from Dalian Meilun Biotech Co., Ltd. Assay details are as follows: tumor cells were seeded in a 96-well plate at a density listed in Table A2. After 24h, 100 µL of the inoculated cells were treated with 0.5µL of the compounds of the present disclosure (including the compounds in Tables 1 and 2, and compounds of examples) at 10 different successively decreasing concentrations (starting at the highest concentration of 10µM; 5-fold serial dilutions). After the cells were treated with the compounds of the present disclosure for a period of time, the cell viability detection reagent was added to the culture medium for cell viability assessment according to the instructions provided with the CCK-8 kit. […] The growth inhibition of the compounds of the present disclosure on cells was plotted by Prism Graphpad software, and the IC50 values of the compounds of the present disclosure were calculated therefrom. […] Seeding protocol and treatment time for tumor cells

MGC-803 = test: CCK-8 proliferation, MGC-803 (heads: MGC80-3, MGC803); assay type: cell-based, Human; conditions: Homo sapiens, MGC-803; CCK-8; 72 hours; read-out: Inhibitory activity (IC50) on tumor cell proliferation, MGC80-3
How it was run: (§3)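 Cells seeded, then after 24 h treated with 10 concentrations (top 10 µM, 5-fold serial dilution) for a line-specific time at 37°C, 5% CO2. Viability read by CCK-8; IC50 fitted from growth-inhibition curves.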

THP-1 = test: CCK-8 proliferation, THP-1; assay type: cell-based; conditions: Homo sapiens, 72 hours, read-out: Inhibitory activity (IC50) on tumor cell proliferation, THP-1
Protocol: as §1, §2

BXPC-3 = test: CCK-8 proliferation, BXPC-3; assay type: cell-based; conditions: Homo sapiens, 96 hours, read-out: Inhibitory activity (IC50) on tumor cell proliferation, BXPC-3
Protocol: as §1, §2

DU-145 = test: CCK-8 proliferation, DU-145; assay type: cell-based; conditions: Homo sapiens, 96 hours, read-out: Inhibitory activity (IC50) on tumor cell proliferation, DU-145
Protocol: as §1, §2

Jurkat = test: CCK-8 proliferation, Jurkat; assay type: cell-based, Human; conditions: Homo sapiens, Jurkat; CCK-8; 96 hours; read-out: Inhibitory activity (IC50) on tumor cell proliferation, Jurkat
How it was run: as §3

CDK9 = target: T1, CDK9 (Homo sapiens, UniProt P50750); test: Western blot degradation of CDK9 (MDA-MB-231 Cell); assay type: cell-based; conditions: Table D13
T1 construct: evaluate the effects of the compounds of the present disclosure on the expression of target proteins in cells; endogenous in cells; host or cells: MDA-MB-231
Protocol: Conventional Western blot assay was performed to evaluate the effects of the compounds of the present disclosure on the expression of target proteins in cells.
(1) Cell Seeding and Protein Harvesting: The selected cells were processed according to the cell seeding procedure and protein harvesting procedure in Table III-2. Table III-2 Cell Seeding and Protein Harvesting Procedures
(2) To the collected supernatant, 5X SDS sample loading buffer was added, followed by denaturation at 95°C for 5 minutes. The denatured samples were then separated by SDS-PAGE electrophoresis on a polyacrylamide gel. Proteins were transferred to a nitrocellulose membrane (0.45 µm NC membrane), blocked with blocking buffer at room temperature for 1 hour, and subjected to antibody incubation and development procedures according to the antibody manufacturer's instructions (Cell Signaling Technology).
Half-Maximal Degradation Concentration value (the drug concentration required for degrading proteins by 50%, abbreviated as DC50) reads method: comparing the grayscale values of Western blot bands from drug-treated samples with those from blank DMSO-treated controls, and identifying the drug concentration range at which the grayscale value is half that of the DMSO-treated control bands.
DC50 values can be calculated using ImageJ software to measure grayscale values of Western blot bands from drug-treated samples. The concentration-response curve is fitted to estimate the drug concentration corresponding to half the grayscale value.
Target protein remaining (%) refers to the percentage of target protein remaining in hPBMC cells after treatment with protein degrader compounds.
Calculation method for target protein remaining (%): Use ImageJ software to measure grayscale values of Western blot bands from drug (protein degrader)-treated samples. The grayscale value of drug-treated bands is divided by that of internal control protein bands, and the resulting quotient is normalized to obtain the relative percentage of remaining target protein after protein degrader treatment.
Target protein degradation rate (%) = 100% - target protein remaining (%).

CCRF-CEM = test: CCK-8 proliferation, CCRF-CEM; assay type: cell-based, Human; conditions: Homo sapiens, CCRF-CEM; CCK-8; 96 hours; read-out: Inhibitory activity (IC50) on tumor cell proliferation, CCRF-CEM
How it was run: as §3

SU-DHL-4 = test: CCK-8 proliferation, SU-DHL-4; assay type: cell-based; conditions: Homo sapiens, 72 hours, read-out: Inhibitory activity (IC50) on tumor cell proliferation, SU-DHL-4
Protocol: as §1, §2

TMD8 = test: CCK-8 proliferation, TMD8; assay type: cell-based; conditions: Homo sapiens, TMD8; CCK-8; 72 hours; read-out: Inhibitory activity (IC50) on tumor cell proliferation, TMD8
Protocol: as §1, §2

[1] = target: T2, human Cereblon WT GST-tagged protein (Homo sapiens, UniProt Q96SW2); test: CRBN binding, HTRF (CEREBLON BINDING kit); conditions: Table II-2, CRBN binding screening, HTRF
T2 construct: purchased CISBIO 64BDCRBNPEH
How it was run: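 After 3 h at room temperature, emission at 665 and 620 nm was measured in a homogeneous time-resolved fluorescence format. Compounds competed with a Thalidomide-Re probe for GST-tagged wild-type human CRBN, which was labelled with a Eu anti-GST antibody.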

T1 sequence (P50750 whole entry): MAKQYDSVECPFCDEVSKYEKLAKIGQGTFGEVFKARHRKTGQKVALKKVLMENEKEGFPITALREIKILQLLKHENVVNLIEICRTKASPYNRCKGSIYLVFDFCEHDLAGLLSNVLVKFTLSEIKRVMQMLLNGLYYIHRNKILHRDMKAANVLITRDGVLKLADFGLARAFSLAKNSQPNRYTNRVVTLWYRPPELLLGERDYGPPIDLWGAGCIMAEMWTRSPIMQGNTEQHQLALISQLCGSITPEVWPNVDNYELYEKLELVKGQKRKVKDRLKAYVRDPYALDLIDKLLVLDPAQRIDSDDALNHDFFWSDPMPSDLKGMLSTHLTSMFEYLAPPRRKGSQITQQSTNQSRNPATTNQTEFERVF
T2 sequence (Q96SW2 whole entry): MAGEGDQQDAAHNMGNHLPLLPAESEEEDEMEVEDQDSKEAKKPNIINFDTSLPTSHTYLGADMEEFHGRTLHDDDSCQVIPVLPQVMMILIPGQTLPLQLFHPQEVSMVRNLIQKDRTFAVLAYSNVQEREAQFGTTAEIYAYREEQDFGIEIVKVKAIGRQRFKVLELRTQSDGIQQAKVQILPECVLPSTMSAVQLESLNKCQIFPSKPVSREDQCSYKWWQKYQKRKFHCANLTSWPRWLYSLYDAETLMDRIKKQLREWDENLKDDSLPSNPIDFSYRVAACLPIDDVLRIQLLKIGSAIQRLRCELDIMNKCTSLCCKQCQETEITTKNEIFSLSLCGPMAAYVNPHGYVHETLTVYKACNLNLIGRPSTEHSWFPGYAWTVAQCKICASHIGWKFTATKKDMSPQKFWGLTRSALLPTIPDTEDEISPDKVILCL

Row | IC50 (H520) | IC50 (MGC-803) | IC50 (THP-1) | IC50 (BXPC-3) | IC50 (DU-145) | IC50 (Jurkat) | IC50 (CCRF-CEM) | IC50 (SU-DHL-4) | SMILES | Degradation of substrate protein CDK9 (substrate protein remaining %) (CDK9) | IC50 (TMD8) | Inhibition rate (%) at 0.5µM ([1]; at 0.5µM) | Inhibition rate (%) at 2 µM ([1]; at 2 µM)
1 | > 10000 nM | > 10000 nM | > 10000 nM | > 10000 nM | > 10000 nM | – | – | – | C[C@]12CC[C@H](O)CC1=CC[C@@H]1[C@@H]2CC[C@]2(C)C(c3cccnc3)=CC[C@@H]12 [abiraterone] | – | – | – | –
2 | – | – | – | – | 10 to 50 nM | 100 to 500 nM | – | – | Cn1ncc(-c2nc(NC3CCN(Cc4ccc(C5CCC(=O)NC5=O)cc4)CC3)ncc2Cl)c1CC1CC1 (stereo not drawn) [GT-04050, 3-(4-((4-((5-chloro-4-(5-(cyclopropylmethyl)-1-methyl-1H-pyrazol-4-yl)pyrimidin-2-yl)amino)piperidin-1-yl)methyl)phenyl)piperidine-2,6-dione] | A (A is defined as 0% ≤ substrate protein remaining % ≤ 80%) | – | – | –
3 | – | – | – | – | 500 to 1000 nM | 100 to 500 nM | 500 to 1000 nM | 100 to 500 nM | O=C(NC1CCNCC1)c1[nH]ncc1NC(=O)c1c(Cl)cccc1Cl [AT7519, reference compound] | – | 500 to 1000 nM | – | –
4 | 500 to 1000 nM | 500 to 1000 nM | 500 to 1000 nM | 100 to 500 nM | – | – | – | – | Cc1ccc(-c2c(C)noc2C)cc1N(CC1CCN(Cc2ccc(N3CCC(=O)NC3=O)cc2F)CC1)c1ccc(C2(C#N)CC2)cc1 [GT-04973, 1-(4-((5-(3,5-dimethylisoxazol-4-yl)-2-methylphenyl)((1-(4-(2,4-dioxotetrahydropyrimidin-1(2H)-yl)-2-fluorobenzyl)piperidin-4-yl)methyl)amino)phenyl)cyclopropane-1-carbonitrile] | – | – | – | –
5 | – | – | – | – | – | – | – | – | N#CC1(CNc2nc(-c3cc(NC4CCN(Cc5ccc(C6CCC(=O)NC6=O)cc5)CC4)ncc3Cl)cs2)CCOCC1 (stereo not drawn) [GT-04074, 4-(((4-(5-chloro-2-((1-(4-(2,6-dioxopiperidin-3-yl)benzyl)piperidin-4-yl)amino)pyridin-4-yl)thiazol-2-yl)amino)methyl)tetrahydro-2H-pyran-4-carbonitrile] | A (A is defined as 0% ≤ substrate protein remaining % ≤ 80%) | – | – | –
6 | 500 to 1000 nM | 100 to 500 nM | 500 to 1000 nM | 100 to 500 nM | – | – | – | – | Cc1ccc(-c2c(C)noc2C)cc1N(CC1CCN(Cc2ccc(N3CCC(=O)NC3=O)cc2)CC1)c1ccc(C2(C#N)CC2)cc1 [GT-04844, 1-(4-((5-(3,5-dimethylisoxazol-4-yl)-2-methylphenyl)((1-(4-(2,4-dioxotetrahydropyrimidin-1(2H)-yl)benzyl)piperidin-4-yl)methyl)amino)phenyl)cyclopropane-1-carbonitrile] | – | – | – | –
7 | – | – | – | – | 500 to 1000 nM | 10 to 50 nM | 1 to 10 nM | 500 to 1000 nM | O=C1CCC(c2ccc(CN3CCC(n4cc(NC(=O)c5coc(-c6ccnc(NCC(F)(F)F)c6)n5)c(C(F)F)n4)CC3)cc2F)C(=O)N1 (stereo not drawn) [GT-04087, N-(3-(difluoromethyl)-1-(1-(4-(2,6-dioxopiperidin-3-yl)-3-fluorobenzyl)piperidin-4-yl)-1H-pyrazol-4-yl)-2-(2-((2,2,2-trifluoroethyl)amino)pyridin-4-yl)oxazole-4-carboxamide] | A (A is defined as 0% ≤ substrate protein remaining % ≤ 80%) | 50 to 100 nM | – | –
8 | 500 to 1000 nM | 100 to 500 nM | 500 to 1000 nM | 100 to 500 nM | – | – | – | – | Cc1ccc(-c2c(C)noc2C)cc1N(CC1CCN(Cc2ccc(N3CCC(=O)NC3=O)c(F)c2)CC1)c1ccc(C2(C#N)CC2)cc1 [GT-04843, 1-(4-((5-(3,5-dimethylisoxazol-4-yl)-2-methylphenyl)((1-(4-(2,4-dioxotetrahydropyrimidin-1(2H)-yl)-3-fluorobenzyl)piperidin-4-yl)methyl)amino)phenyl)cyclopropane-1-carbonitrile] | – | – | – | –
9 | – | – | – | – | 100 to 500 nM | – | 500 to 1000 nM | 500 to 1000 nM | Cn1ncc(-c2nc(NC3CCN(Cc4ccc(C5CCC(=O)NC5=O)c(F)c4)CC3)ncc2Cl)c1CC1CC1 (stereo not drawn) [GT-04051, 3-(4-((4-((5-chloro-4-(5-(cyclopropylmethyl)-1-methyl-1H-pyrazol-4-yl)pyrimidin-2-yl)amino)piperidin-1-yl)methyl)-2-fluorophenyl)piperidine-2,6-dione] | A (A is defined as 0% ≤ substrate protein remaining % ≤ 80%) | 500 to 1000 nM | – | –

Row | SMILES | IC50 (H520) | IC50 (MGC-803) | IC50 (THP-1) | IC50 (BXPC-3) | IC50 (DU-145) | IC50 (Jurkat) | IC50 (CCRF-CEM) | IC50 (SU-DHL-4) | Degradation of substrate protein CDK9 (substrate protein remaining %) (CDK9) | IC50 (TMD8) | Inhibition rate (%) at 0.5µM ([1]; at 0.5µM) | Inhibition rate (%) at 2 µM ([1]; at 2 µM)
10 | O=C1CCC(c2ccc(CN3CCC(n4cc(NC(=O)c5coc(-c6ccnc(NCC(F)(F)F)c6)n5)c(C(F)F)n4)CC3)cc2)C(=O)N1 (stereo not drawn) [GT-04121, N-(3-(difluoromethyl)-1-(1-(4-(2,6-dioxopiperidin-3-yl)benzyl)piperidin-4-yl)-1H-pyrazol-4-yl)-2-(2-((2,2,2-trifluoroethyl)amino)pyridin-4-yl)oxazole-4-carboxamide] | – | – | – | – | 100 to 500 nM | 100 to 500 nM | 10 to 50 nM | 500 to 1000 nM | A (A is defined as 0% ≤ substrate protein remaining % ≤ 80%) | 100 to 500 nM | a2 (20% < a2 ≤ 30%) | a6 (60% < a6 ≤ 80%)
